According to patent US20220280543A1, “DDX17 AND NLRC4 TARGETING FOR INFLAMMATORY DISEASES” (University of Virginia Patent Foundation, priority 2019, published 2022):

Experiments:
ASC specks = test: SINE RNA induced ASC specks in BMDM, immunofluorescence; assay type: cell-based, mouse; details: BMDMs, transfection vs Mock (FIG. 3A)
Experimental: FIGS. 3A and 3B. SINE RNA-induced ASC oligomerization is dependent on NLRC4 (BMDM). FIG. 3A. Immunofluorescence images of endogenous ASC specks and NLRC4 puncta in BMDMs after transfected with Alu (SEQ ID NO: 86) or B2 (SEQ ID NO: 88) RNA or transfection reagents only (Mock). […] Moreover, NLRC4 proteins assembled as puncta, and co-resided with ASC specks. FIG. 3B. ASC oligomerizations were evaluated in wild-type and Nlrc4^−/− BMDMs through cross-linking and western blot. […] The bands of oligomeric ASC protein were indicated by black arrow.
(§1) The activated NLRC4 inflammasome undergoes oligomerization by assembling into high-molecular mass multiprotein complexes. We first investigated in situ assembling of NLRC4 and apoptosis speck (ASC) like protein complexes in response to SINE RNA treatment of BMDMs. Immunofluorescence studies show increased NLRC4 and ASC specks in SINE RNA-treated BMDMs compared to mock-treated cells (FIG. 3A). To assess NLRC4 inflammasome assembly, WT and NLRC4 KO BMDM cells were treated with Alu RNA (SEQ ID NO: 86). Disuccinimidyl suberate (DSS) cross-linked lysates were resolved using denaturing SDS-PAGE to detect ASC oligomers and cell lysates were resolved using native polyacrylamide gel electrophoresis (NATIVE-PAGE) to detect NLRC4 oligomerization. […] NLRC4/ASC oligomerization is essential for the cleavage of pro-caspase-1 into its active form p20 and IL-1β release.

DDX17 = DDX17 (Homo sapiens, UniProt Q92841); test: DDX17 translocation in THP-1 cells, cell fractionation and immunoblot; assay type: cell-based; details: THP-1, Alu RNA 100 pmol (FIG. 36)
Sequence of DDX17 (Q92841 whole entry, species assumed): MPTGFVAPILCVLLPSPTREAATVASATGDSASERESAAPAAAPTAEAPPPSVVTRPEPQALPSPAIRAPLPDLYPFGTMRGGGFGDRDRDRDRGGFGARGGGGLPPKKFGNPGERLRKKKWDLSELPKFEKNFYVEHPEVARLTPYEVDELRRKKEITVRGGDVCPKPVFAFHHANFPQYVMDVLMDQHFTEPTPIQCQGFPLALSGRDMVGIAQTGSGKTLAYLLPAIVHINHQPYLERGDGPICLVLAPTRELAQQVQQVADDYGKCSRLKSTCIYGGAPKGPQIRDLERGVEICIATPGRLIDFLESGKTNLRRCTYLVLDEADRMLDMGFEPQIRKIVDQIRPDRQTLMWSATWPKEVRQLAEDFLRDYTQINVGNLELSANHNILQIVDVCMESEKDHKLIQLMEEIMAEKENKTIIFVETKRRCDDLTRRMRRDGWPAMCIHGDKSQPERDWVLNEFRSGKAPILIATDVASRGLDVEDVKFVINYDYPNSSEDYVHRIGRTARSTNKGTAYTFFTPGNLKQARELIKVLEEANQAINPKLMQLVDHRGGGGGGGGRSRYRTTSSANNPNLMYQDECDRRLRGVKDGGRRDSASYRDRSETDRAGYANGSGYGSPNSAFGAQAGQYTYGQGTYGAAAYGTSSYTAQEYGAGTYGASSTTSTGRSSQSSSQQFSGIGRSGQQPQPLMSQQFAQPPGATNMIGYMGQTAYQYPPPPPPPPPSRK
Excerpt: FIG. 36. Alu RNA (SEQ ID NO: 86) induces DDX17 translocation in human cells. Human monocytes (THP-1) were transfected with Alu RNA (SEQ ID NO: 86 at 100 pmol) using LIPOFECTAMINE™ 3000 brand transfection reagent (Lipo; ThermoFisher Scientific). Cell lysates were collected and subjected to cell fractionation. Immunoblots of DDX17 and Histone H3 were used to evaluate the subcellular distribution of DDX17. […] The bands of DDX17 in cell nucleus and cytoplasm were indicated by black arrows.
Human monocytes (THP-1) were treated with Alu RNA (SEQ ID NO: 86 at 100 pmol). Cell lysates were collected and subjected to cell fractionation. Immunoblots of DDX17 and Histone H3 were used to evaluate the subcellular distribution of DDX17.

caspase-1 = test: Alu RNA induced cleavage of caspase-1 precursor in BMDM; assay type: cell-based, mouse; details: Alu RNA transfection (FIG. 2)
Experimental: FIG. 2. SINE RNA induced NLRC4 phosphorylation (site S533) through protein Kinase C Delta. BMDM cell pre-treated with the LRRK2 Kinase inhibitor gsk2578215a (GSK; 5-(2-Fluoro-4-pyridinyl)-2-(phenylmethoxy)-N-3-pyridinyl-benzamide; CAS Number 1285515-21-0; Sigma-Aldrich, St. Louis, Mo., United States of America) or the PKC delta inhibitor Rottlerin (CAS Number 82-08-6; Sigma-Aldrich) at 2 μM or 5 μM, and treated with Alu RNA (SEQ ID NO: 86) transfection or transfection reagent alone (Mock). NLRC4 phosphorylation (P-NLRC4) and supernatant caspase-1 activation were detected by SDS-PAGE. […] PKC delta inhibitor, Rottlerin blocked Alu RNA-induced NLRC4 phosphorylation and caspase-1 activation. The p-NLRC4 and caspase-1 (p20) bands were indicated with black arrows.

NLRC4 = test: Alu RNA induced NLRC4 protein oligomerization in BMDM, Tris-glycine native PAGE; assay type: cell-based, mouse; details: Alu RNA 100 pmol, indicated time points (FIG. 4)
Experimental: FIG. 4. Alu RNA (SEQ ID NO: 86) induced NLRC4 protein oligomerization. Mouse BMDM was treated with Alu RNA (SEQ ID NO: 86; 100 pmol) at the indicated time points. NLRC4 oligomers were detected by Tris-glycine native PAGE. Loading control show by Actin. […] The bands of oligomeric NLRC4 protein were indicated by black arrow.
as §1

NLRC4 and NLRP3 complex = test: Assembly of NLRC4 and NLRP3 complex in human RPE cells, Proximity Ligation Assay; assay type: cell-based; details: biotinylated Alu RNA 100 pmol, PLA (FIG. 37)
Experimental: FIG. 37. Alu RNA (SEQ ID NO: 86) induces the assembly of NLRC4 and NLRP3 complex. Human RPE cells were transfected with biotinylated Alu RNA (SEQ ID NO: 86 at 100 pmol) by LIPOFECTAMINE™ 3000 brand transfection reagent (Lipo; ThermoFisher Scientific). The assembly of NLRC4 and NLRP3 complex was evaluated by Proximity Ligation Assay (PLA). […] The signal of NLRC4-NLRP3 complexes is indicated by the white arrow.
Human RPE cells were treated with biotinylated Alu RNA (SEQ ID NO: 86 at 100 pmol). The assembly of NLRC4 and NLRP3 complex was evaluated by Proximity Ligation Assay (PLA).

Alu RNA: human SINE RNA, SEQ ID NO: 86
formation of ASC specks (ASC specks): induced the formation of ASC specks
subcellular distribution of DDX17 (DDX17): induced DDX17 translocation from the nucleus to the cytoplasm
cleavage of caspase-1 precursor (pro) to p20 (caspase-1): induced
formation of NLRC4 oligomers, BMDM (NLRC4): induces the formation of NLRC4 oligomers
assembly of NLRC4 and NLRP3 complex (NLRC4 and NLRP3 complex): induced the assembly
